Values of other authors as cited in publication PMC7395068, “The evolution of strategies to minimise the risk of human drug-induced liver injury (DILI) in drug discovery and development” (Archives of Toxicology, 2020).
Counter-ions that a name gives are not always drawn. Like-named read-outs stand apart in the source and are kept apart here. *1 amine or outer side, *2 acyl side, *3 side chain or, on linkers, in order; H or OH if unused. Where a SMILES comes first, the peptide text is derived from it. Bridges are numbered along the chain shown (N, C = ends). [ ]: non-standard residue; d: D form. The star is where a group is joined. pTerphenylCO(4''-OnC5H11) = CCCCCOc1ccc(-c2ccc(-c3ccc(C(=O)*)cc3)cc2)cc1; Orn(4R-OH,5R-OH) = O=C([C@H](C[C@@H](O)[C@@H](O)N[*:3])N[*:1])[*:2]; hTyr(3S-OH,4S-OH) = N[C@H](C(=O)O)[C@H](O)[C@@H](O)c1ccc(O)cc1; Pro(3S-OH,4S-Me) = C[C@H]1CN[C@H](C(=O)O)[C@H]1O; Hyp = O=C(O)[C@@H]1C[C@@H](O)CN1

Details: cited from earlier work
[1] = LTKB DILIrank category, ref Chen 2016
[2] = binary DILI call, ref Chen 2016

Compound | DILI severity category [1] | DILI +VE (5-8), DILI -VE (-4) [2] | other results
OC[C@H]1O[C@@H](O[C@@H]2[C@@H](CO)OC(O)(CO)[C@H]2O)[C@H](O)[C@@H](O)[C@H]1O (mixture of isomers) [lactulose] |  |  | DILI +VE (5-8), DILI -VE (-4) (binary in vivo human DILI call, ref Chen 2016): -VE; DILI severity category (human DILI, LTKB DILIrank category, ref Chen 2016): vNo-DILI-Concern
CCCCC(C)(O)C/C=C/[C@H]1[C@H](O)CC(=O)[C@@H]1CCCCCCC(=O)OC (mixture of isomers) [misoprostol] |  |  | DILI +VE (5-8), DILI -VE (-4) (in vivo): -VE; DILI severity category (in vivo): Ambiguous DILI-concern
O=C(O)CCCc1ccccc1 [4-phenylbutyric acid] | Ambiguous DILI-concern | -VE | 
Nc1nc(=O)c2c([nH]1)NC[C@H](CNc1ccc(C(=O)N[C@@H](CCC(=O)O)C(=O)O)cc1)N2C=O [Levoleucovorin] |  |  | DILI +VE (5-8), DILI -VE (-4) (in vivo): -VE; DILI severity category (in vivo): vNo-DILI-Concern
CC(=O)NCCCS(=O)(=O)O [acamprosate] |  |  | DILI +VE (5-8), DILI -VE (-4) (in vivo): +VE; DILI severity category (in vivo): vLess-DILI-Concern
CCCC(=O)Nc1ccc(OCC(O)CNC(C)C)c(C(C)=O)c1 (centres unmarked) [acebutolol] | vLess-DILI-Concern |  | 
O=C(O)COC(=O)Cc1ccccc1Nc1c(Cl)cccc1Cl [aceclofenac] |  |  | DILI +VE (5-8), DILI -VE (-4) (in vivo): +VE; DILI severity category (in vivo): vLess-DILI-Concern
CC(=O)NO [acetohydroxamic acid] |  |  | DILI +VE (5-8), DILI -VE (-4) (in vivo): -VE; DILI severity category (in vivo): Ambiguous DILI-concern
Nc1ncnc2c1ncn2CCOCP(=O)(O)O [adefovir] | vLess-DILI-Concern |  | 
CC(N)C(=O)OC(C)(C)Cc1ccc(Cl)cc1 (centres unmarked) [alaproclate] | vMost-DILI-Concern |  | 
C[C@H](N)C(=O)N[C@@H](C)C(=O)N[C@H]1[C@@H]2CN(c3nc4c(cc3F)c(=O)c(C(=O)O)cn4-c3ccc(F)cc3F)C[C@@H]21 [alatrofloxacin mesylate] | vMost-DILI-Concern |  | 
C=CCOc1ccc(CC(=O)O)cc1Cl [alclofenac] | vMost-DILI-Concern |  | 
COc1cc2nc(N(C)CCCNC(=O)C3CCCO3)nc(N)c2cc1OC (centres unmarked) [alfuzosin] | vLess-DILI-Concern |  | 
CN(C)CCc1c[nH]c2ccc(CS(=O)(=O)N3CCCC3)cc12 [almotriptan] | vNo-DILI-Concern | -VE | 
Cc1nnc2n1-c1ccc(Cl)cc1C(c1ccccc1)=NC2 [alprazolam] |  |  | DILI +VE (5-8), DILI -VE (-4) (in vivo): +VE; DILI severity category (in vivo): vLess-DILI-Concern
C[C@H]1CN(C[C@H](Cc2ccccc2)C(=O)NCC(=O)O)CC[C@@]1(C)c1cccc(O)c1 [alvimopan] | vNo-DILI-Concern | -VE | 
CC[N+](CC)(CCNC(=O)C(=O)NCC[N+](CC)(CC)Cc1ccccc1Cl)Cc1ccccc1Cl [ambenonium] |  |  | DILI +VE (5-8), DILI -VE (-4) (in vivo): -VE; DILI severity category (in vivo): vNo-DILI-Concern
NCCCNCCSP(=O)(O)O [amifostine] | vNo-DILI-Concern | -VE | 
NCCCCCC(=O)O [aminocaproic acid] | vNo-DILI-Concern | -VE | 
Nc1ccc(C(=O)NCC(=O)O)cc1 [aminohippurate] |  |  | DILI +VE (5-8), DILI -VE (-4) (in vivo): -VE; DILI severity category (in vivo): vNo-DILI-Concern
CCOC(=O)C1=C(COCCN)NC(C)=C(C(=O)OC)C1c1ccccc1Cl (centres unmarked) [amlodipine] |  |  | DILI +VE (5-8), DILI -VE (-4) (in vivo): +VE; DILI severity category (in vivo): vLess-DILI-Concern
CC(N)Cc1ccccc1 (centres unmarked) [amphetamine] |  |  | DILI +VE (5-8), DILI -VE (-4) (in vivo): +VE; DILI severity category (in vivo): vLess-DILI-Concern
CC(C)CN(C[C@@H](O)[C@H](Cc1ccccc1)NC(=O)O[C@H]1CCOC1)S(=O)(=O)c1ccc(N)cc1 [amprenavir] | Ambiguous DILI-concern | -VE | 
O=C1CN2Cc3c(ccc(Cl)c3Cl)N=C2N1 [anagrelide] | Ambiguous DILI-concern | -VE | 
CCCCCOc1ccc(-c2ccc(-c3ccc(C(=O)N[C@H]4C[C@@H](O)[C@@H](O)NC(=O)[C@@H]5[C@@H](O)[C@@H](C)CN5C(=O)[C@H]([C@@H](C)O)NC(=O)[C@H]([C@H](O)[C@@H](O)c5ccc(O)cc5)NC(=O)[C@@H]5C[C@@H](O)CN5C(=O)[C@H]([C@@H](C)O)NC4=O)cc3)cc2)cc1 [anidulafungin] ({pTerphenylCO(4''-OnC5H11)}-[Orn(4R-OH,5R-OH)]T[Hyp][hTyr(3S-OH,4S-OH)]T[Pro(3S-OH,4S-Me)]; lactam 1-C) | Ambiguous DILI-concern | -VE | 
CN1CCc2cccc3c2[C@H]1Cc1ccc(O)c(O)c1-3 [apomorphine] | vNo-DILI-Concern | -VE | 

Compound | DILI severity category [1] | DILI +VE (5-8), DILI -VE (-4) [2] | other results
NC(=O)C[S@@+]([O-])C(c1ccccc1)c1ccccc1 [armodafinil] | Ambiguous DILI-concern | -VE | 
CNCC[C@@H](Oc1ccccc1C)c1ccccc1 [atomoxetine] | vMost-DILI-Concern |  | 
O=C1C(O)=C([C@H]2CC[C@H](c3ccc(Cl)cc3)CC2)C(=O)c2ccccc21 [atovaquone] | Ambiguous DILI-concern | -VE | 
COc1ccc(CC2c3cc(OC)c(OC)cc3CC[N+]2(C)CCC(=O)OCCCCCOC(=O)CC[N+]2(C)CCc3cc(OC)c(OC)cc3C2Cc2ccc(OC)c(OC)c2)cc1OC (centres unmarked) [atracurium] | vNo-DILI-Concern | -VE | 
CC(=O)OC[C@H]1O[C@@H]([S-])[C@H](OC(C)=O)[C@@H](OC(C)=O)[C@@H]1OC(C)=O.CCP(CC)CC.[Au+] [auranofin] | vLess-DILI-Concern |  | 
Nc1ncn([C@@H]2O[C@H](CO)[C@@H](O)[C@H]2O)c(=O)n1 [azacitidine] | Ambiguous DILI-concern | -VE | 
O=C(O)CCNC(=O)c1ccc(/N=N/c2ccc(O)c(C(=O)O)c2)cc1 [balsalazide] | Ambiguous DILI-concern | -VE | 
Cn1c(CCCC(=O)O)nc2cc(N(CCCl)CCCl)ccc21 [bendamustine] |  |  | DILI +VE (5-8), DILI -VE (-4) (in vivo): -VE; DILI severity category (in vivo): vNo-DILI-Concern
O=C(O)COc1nn(Cc2ccccc2)c2ccccc12 [bendazac] | vMost-DILI-Concern |  | 
NS(=O)(=O)c1cc2c(cc1C(F)(F)F)NC(Cc1ccccc1)NS2(=O)=O (centres unmarked) [bendroflumethiazide] | vLess-DILI-Concern |  | 
CCCCNc1ccc(C(=O)OCCOCCOCCOCCOCCOCCOCCOCCOCCOC)cc1 [benzonatate] | vLess-DILI-Concern |  | 
C[C@@H](Cc1ccccc1)N(C)Cc1ccccc1 [benzphetamine] |  |  | DILI +VE (5-8), DILI -VE (-4) (in vivo): -VE; DILI severity category (in vivo): vNo-DILI-Concern
CC(C)NCC(O)COc1ccc(CCOCC2CC2)cc1 (centres unmarked) [betaxolol] | Ambiguous DILI-concern | -VE | 
CC(C[N+](C)(C)C)OC(N)=O (centres unmarked) [bethanechol] | vNo-DILI-Concern | -VE | 
CC(C)C[C@H](NC(=O)[C@H](Cc1ccccc1)NC(=O)c1cnccn1)B(O)O [bortezomib] | vMost-DILI-Concern |  | 
CC(C)C[C@H]1C(=O)N2CCC[C@H]2[C@]2(O)O[C@](NC(=O)[C@@H]3C=C4c5cccc6[nH]c(Br)c(c56)C[C@H]4N(C)C3)(C(C)C)C(=O)N12 [bromocriptine] | vLess-DILI-Concern |  | 
CCC(C)C1(CC)C(=O)NC(=O)NC1=O (centres unmarked) [butabarbital] | Ambiguous DILI-concern | -VE | 
C=CCN1C[C@H](C(=O)N(CCCN(C)C)C(=O)NCC)C[C@@H]2c3cccc4[nH]cc(c34)C[C@H]21 [cabergoline] | vNo-DILI-Concern | -VE | 
CC(C)C[C@H](NC(=O)[C@H](CCCCN)NC(=O)CNC(=O)[C@H](CC(C)C)NC(=O)[C@@H](NC(=O)[C@@H]1CSSC[C@H](N)C(=O)N[C@@H](CO)C(=O)N[C@@H](CC(N)=O)C(=O)N[C@@H](CC(C)C)C(=O)N[C@@H](CO)C(=O)N[C@@H]([C@@H](C)O)C(=O)N1)C(C)C)C(=O)N[C@@H](CO)C(=O)N[C@@H](CCC(N)=O)C(=O)N[C@@H](CCC(=O)O)C(=O)N[C@@H](CC(C)C)C(=O)N[C@@H](Cc1c[nH]cn1)C(=O)N[C@@H](CCCCN)C(=O)N[C@@H](CC(C)C)C(=O)N[C@@H](CCC(N)=O)C(=O)N[C@H](C(=O)N[C@@H](Cc1ccc(O)cc1)C(=O)N1CCC[C@H]1C(=O)N[C@@H](CCCNC(=N)N)C(=O)N[C@H](C(=O)N[C@@H](CC(N)=O)C(=O)N[C@H](C(=O)NCC(=O)N[C@@H](CO)C(=O)NCC(=O)N[C@H](C(=O)N1CCC[C@H]1C(N)=O)[C@@H](C)O)[C@@H](C)O)[C@@H](C)O)[C@@H](C)O [calcitonin salmon] |  |  | DILI +VE (5-8), DILI -VE (-4) (in vivo): -VE; DILI severity category (in vivo): vNo-DILI-Concern
C=C1/C(=C\C=C2/CCC[C@]3(C)[C@@H]([C@H](C)CCCC(C)(C)O)CC[C@@H]23)C[C@@H](O)C[C@@H]1O [calcitriol] | vNo-DILI-Concern | -VE | 
CC(=O)[O-].CC(=O)[O-].[Ca+2] [calcium acetate] |  |  | DILI +VE (5-8), DILI -VE (-4) (in vivo): -VE; DILI severity category (in vivo): vNo-DILI-Concern
CCCCCOC(=O)Nc1nc(=O)n([C@@H]2O[C@H](C)[C@@H](O)[C@H]2O)cc1F [capecitabine] | Ambiguous DILI-concern | -VE | 
CC1(C)S[C@@H]2[C@H](NC(=O)C(C(=O)O)c3ccccc3)C(=O)N2[C@H]1C(=O)O (some centres unmarked) [carbenicillin] | vLess-DILI-Concern |  | 
CN(C)CCOC(c1ccc(Cl)cc1)c1ccccn1 (centres unmarked) [carbinoxamine] | vNo-DILI-Concern | -VE | 
CCCCC[C@](C)(O)/C=C/[C@@H]1[C@@H](C/C=C\CCCC(=O)O)[C@@H](O)C[C@H]1O [carboprost tromethamine] | vNo-DILI-Concern | -VE | 
COc1ccccc1OCCNCC(O)COc1cccc2[nH]c3ccccc3c12 (centres unmarked) [carvedilol] | vLess-DILI-Concern |  | 
